Experimental data: patent publication US12403106B2, “Prophylactic skin treatment for radiation therapy” (THE BOARD OF TRUSTEES OF THE LELAND STANFORD JUNIOR …, priority 2019, dated 2025)

What was measured:
fat grafts = assay: Fat graft volume retention by micro-CT in DFO preconditioned irradiated scalp (Example 1); format: in vivo; conditions: DFO preconditioned irradiated mice, mean±SE
Method: (§1) Adult 60-day-old male Cr1:NU-Fox1NU immunocompromised mice were used for experiments in this study. Twelve mice were treated with a total of 30 Gy external beam radiation, delivered as six fractionated doses of 5 Gy each over 12 days, followed by 5 weeks of recovery. An additional six non-irradiated mice were used as healthy controls for laser Doppler analysis (LDA) and skin analysis. Irradiated mice were divided into two treatment groups: a DFO experimental group and saline control group. Following recovery, mice underwent injection of either DFO (1 mg in 100 μl saline) or 100 μl of saline alone beneath the dermis every other day for a total of seven treatments.
After irradiation, fat grafting was performed on the irradiated mice. After informed consent was obtained, lipoaspirate was obtained from three healthy donors, with no other medical co-morbidities under an approved IRB protocol #2188.
Lipoaspirate was allowed to settle for 15 minutes for layers to separate by gravity sedimentation, and then oil and blood layers were removed by vacuum aspiration. The remaining fat layer was centrifuged at 1300 ref for 3 minutes at 4° C. Any remaining oil and blood was again removed and the remaining fat was transferred into lee syringes for injection through a 14-gauge needle. Fat grafting was performed beneath the scalp by creating a subcutaneous tunnel with the needle and then injecting […] of lipoaspirate in retrograde fashion while pulling the needle out.
Mice were also imaged using a MicroCAT-11 in vivo X-Ray micro-CT scanner (Imtek, Inc.; Knoxville, Tenn.) two days after fat graft injection for baseline volume measurements. Fat graft volume retention was then analyzed every two weeks over a total of 8 weeks using microcomputed tomography, and images were reconstructed as three-dimensional surfaces through cubic-spline interpolation. All reconstructions were performed by a single investigator to avoid inter-observer variability.

irradiated scalp = assay: Laser Doppler analysis of perfusion of irradiated scalp, DFO injection (Example 1); format: in vivo, mice; conditions: mean±SE
Method: as §1
Laser Doppler Analysis (“LDA”) was performed to measure perfusion at the irradiated site using a Perimed PIM 3 laser Doppler perfusion imager (Datavagen, Sweden). The signal generated by the LDA, laser Doppler perfusion index (LDPI), was used for comparative purposes. LDPI is a product of the blood cell velocity and concentration and is represented by a color spectrum, with black/dark blue representing low perfusion and red representing high perfusion. LDA was performed prior to irradiation, following completion of irradiation and recovery, and then twenty-four hours following each treatment with DFO or saline. […]
Five images were taken of each mouse, and the average LDPI of the five images was recorded. […]

For `CC(=O)N(O)CCCCCNC(=O)CCC(=O)N(O)CCCCCNC(=O)CCC(=O)N(O)CCCCCN` [DFO, deferoxamine], the “fat graft volume retention” value (fat grafts; two weeks after fat grafting) was 89.24%, the “fat graft volume retention” value (fat grafts; week 6 after fat grafting) was 73.17% and the “fat graft volume retention” value (fat grafts; week 8 after fat grafting) was 71.75%. The “laser Doppler perfusion index at the scalp” value (irradiated scalp; 30 Gy irradiated scalp, 1 mg DFO injected beneath the dermis every other day, after four treatments) was 205.08±2.30 LDPI and the “laser Doppler perfusion index following fat grafting” value (irradiated scalp; two weeks following injection of fat grafts, DFO preconditioned mice) was 86.33±2.00 LDPI.
